Assay results published in publication PMC4912218, “Targeted metabolomics of Gammarus pulex following controlled exposures to selected pharmaceuticals in water” (The Science of the Total Environment, 2016).
In brackets after ≈: the same amount, converted by molar mass.

How the values were obtained:
in vivo = settings: in vivo
Experimental: (§1) From these toxicity profiles the NOAEL and the LOAEL were determined. Exposure experiments were performed in Pyrex® beakers, each containing 200 mL of AFW at 15 °C and ten adult animals (> 5 mg wet weight, ww). Live/dead animals were counted after 24 h by gently prodding and observing movement of appendages. The pharmaceutical concentrations tested were in the range of 0.01 to 250 mg L^− 1. […] Concentrations where 100, 50 and 0% of the animals died were repeated in duplicate or triplicate.

Gammarus pulex = assay: in vivo; settings: G. pulex
Experimental: as §1

[1] = Internal pharmaceutical residue concentration in exposed G. pulex (SPE, LC-MS/MS); settings: C1 dose, 24 h
Experimental: Quantification of pharmaceutical concentrations in G. pulex at the 24 h exposure interval was performed. Separate exposures were set up in triplicate in beakers containing 200 mL of exposure solution (AFW spiked with the respective C1 pharmaceutical dose) and 20 organisms. At 24 h, animals were immediately rinsed with ultra-pure water and then frozen at − 20 °C for 24 h. […] Prior to extraction, frozen G. pulex samples were lyophilised at − 50 °C under vacuum for 48 h and milled in an agate mortar to a fine powder. For each analysis, 20 mg of a lyophilised composite sample were transferred to 2 mL polypropylene tubes (Eppendorf®, Hamburg, Germany), for solid-liquid extraction (SLE). […]
Briefly, 50 mg of lyophilised G. pulex were extracted in 5 mL of acetonitrile and pre-concentrated on Oasis HLB SPE cartridges (6 mL, 200 mg sorbent). […] Organic acids, nucleosides, nucleotides, sugars and AAs were measured using LC–HRMS. […]
Here, pharmaceutical residue quantification in exposed G. pulex was performed by a 3-point matrix-matched calibration curve. […] L-ornithine hydrochloride, inosine, thymidine, taurine, 1.7-dimethylxanthine and (−)-riboflavin were quantified using either ^13C,^15N-proline or ^13C,^15N-tyrosine as the internal standard. The remaining 15 compounds were quantified using external calibration and the target compound itself was used as external standard. […]

[2] = set-up: method as in Drugbank; settings: 20 °C; ref Drugbank; cited from earlier work

In the case of `Oc1cc(Cl)ccc1Oc1ccc(Cl)cc1Cl` [Triclosan], the LC50 at 24 h (in vivo) is reported as 0.57 mg/L (≈ 1.97 µM), the LC10 (Gammarus pulex; 24 h) is reported as 0.20 mg/L (≈ 0.691 µM) and the “LOAEL (C2)” value (Gammarus pulex; 24 h acute toxicity profile) is reported as 0.3 mg L^− 1. The “NOAEL (C1)” value (Gammarus pulex; 24 h acute toxicity profile) was 0.1 mg L^− 1, the “internal concentration in G. pulex (detection)” value [1] was “not quantifiable” and the Water solubility [2] was 12000 (20 ºC) mg L^-1.
